According to publication PMC8482815, “Targeting Host Glycolysis as a Strategy for Antimalarial Development” (Frontiers in Cellular and Infection Microbiology, 2021):
Several values for one entry are separate records, joined by “and”; a condition that tells them apart may be missing. Identical values can stand only once.

Test system: human erythrocytes
Test: Untargeted metabolomics and 13C-glucose tracing of enolase inhibitor treated erythrocytes
Assay type: cell-based
Conditions: 1h
Experimental: Freshly collected erythrocytes were washed, resuspended to 10% hematocrit in buffer [25mM HEPES (pH 7.4), 120mM NaCl, 5.4mM KCl, 1.8mM CaCl2, and 1mM NaH2PO4], incubated for 1 hour at 37°C, then centrifuged at 2000xg for 5 minutes at 4°C, resuspended in fresh wash buffer to 30-40% hematocrit, and split into 210µL aliquots of packed erythrocytes. […] All samples were incubated at 37°C shaking at 500 RPM. Triplicate samples of supernatants and packed erythrocytes were collected at 0, 0.5, 1, and 6-hour intervals and snap-frozen in liquid N2.
RBC and media samples were extracted at 1:10 and 1:20 dilutions, respectively, in 5:3:2 MeOH : MeCN:H2O v/v/v, and supernatants analyzed on a Thermo Vanquish UHPLC coupled to a Thermo Q Exactive mass spectrometer, as extensively described ([Nemkov et al., 2015]; [Nemkov et al., 2017]). The extraction buffer was supplemented with 40uM 3-^13C lactate to allow absolute quantification of lactate isotopologues, including lactate generated via glycolysis ([1,2,3-^13C3] enriched) vs. the pentose phosphate pathway ([2,3-^13C2] enriched), as described ([Reisz et al., 2016]). Metabolite assignments, peak area integration and isotopologues distributions were determined using Maven (Princeton University) ([Nemkov et al., 2015]; [Nemkov et al., 2017]).
Data were auto-scaled and normalized to zero-hour time points. Metabolites were removed from the dataset if greater than 50% of the samples contained missing values or the relative standard deviation among replicates exceeded 25%. Additionally, data was filtered using the interquartile range to reduce near-constant values from the experiment by 5%.
A principal component analysis of preprocessed data was plotted with the 95% confidence interval minimum volume enclosing ellipsoid for each respective group (MetaboAnalyst, cluster, plotly). A two-way repeated measures analysis of variance (ANOVA) was performed with multiple comparisons corrected for using a false discovery rate p-value cutoff of 0.05. Metabolite-Pathway analysis was performed using the R package of MetaboAnalyst, as previously described ([Xia and Wishart, 2010]). Metabolite-Protein nodal analysis was performed using omicsnet.ca and as previously described ([Zhou and Xia, 2018]).

[1] = treated erythrocytes, one value per replicate sample, polarity +
[2] = treated erythrocytes, one value per replicate sample, polarity -
[3] = treated erythrocytes, replicate samples

CC(C)(C)C(=O)OCOP(=O)(OCOC(=O)C(C)(C)C)C1CC(O)N(O)C1=O (stereo not shown) [POMSF]
AMP level (metabolomics signal) (replicate samples): 2.14E+06 and 1.66E+06 and 1.77E+06
ATP level (metabolomics signal) (replicate samples): 1.57E+04 and 2.82E+04 and 2.26E+04
Adenine level (metabolomics signal) (replicate samples): 1.34E+05 and 1.22E+05 and 1.52E+05
Cytosine level (metabolomics signal) (replicate samples): 3.68E+05 and 3.33E+05 and 3.22E+05
L-alanine level (metabolomics signal) (replicate samples): 8.35E+06 and 9.14E+06 and 1.12E+07
L-arginine level (metabolomics signal) (replicate samples): 1.02E+07 and 1.01E+07 and 0.00E+00
L-asparagine level (metabolomics signal) (replicate samples): 7.51E+06 and 6.72E+06 and 7.84E+06
L-aspartate level (metabolomics signal) (replicate samples): 3.12E+07 and 3.26E+07 and 2.90E+07
L-cysteine level (metabolomics signal) (replicate samples): 1.80E+06 and 1.83E+06 and 5.70E+05
L-glutamate level (metabolomics signal) (replicate samples): 3.18E+07 and 2.68E+07 and 2.49E+07
L-glutamine level (metabolomics signal) (replicate samples): 8.50E+07 and 9.01E+07 and 8.26E+07
L-histidine level (metabolomics signal) (replicate samples): 1.59E+06 and 1.54E+06 and 1.57E+06
L-isoleucine level (metabolomics signal) (replicate samples): 1.27E+07 and 1.24E+07 and 1.09E+07
L-leucine level (metabolomics signal) (replicate samples): 2.27E+08 and 2.54E+08 and 2.31E+08
L-lysine level (metabolomics signal) (replicate samples): 2.40E+06 and 2.03E+06 and 1.89E+06
L-methionine level (metabolomics signal) (replicate samples): 2.24E+07 and 2.35E+07 and 2.22E+07
L-phenylalanine level (metabolomics signal) (replicate samples): 1.58E+07 and 1.49E+07 and 1.43E+07
L-proline level (metabolomics signal) (replicate samples): 6.58E+07 and 5.90E+07 and 5.39E+07
L-serine level (metabolomics signal) (replicate samples): 4.64E+06 and 5.26E+06 and 6.00E+06
L-threonine level (metabolomics signal) (replicate samples): 8.46E+06 and 8.55E+06 and 8.85E+06
L-tryptophan level (metabolomics signal) (replicate samples): 5.00E+06 and 4.41E+06 and 4.35E+06
L-tyrosine level (metabolomics signal) (replicate samples): 2.58E+07 and 2.87E+07 and 2.75E+07
L-valine level (metabolomics signal) (replicate samples): 1.53E+08 and 1.47E+08 and 1.51E+08
dCMP level (metabolomics signal) (replicate samples): 1.51E+04 and 1.42E+04 and 1.15E+04
dTMP level (metabolomics signal) (replicate samples): 1.28E+06 and 1.27E+06 and 1.22E+06
glycine level (metabolomics signal) (replicate samples): 1.77E+06 and 2.28E+06 and 2.53E+06
N-Acyl-D-aspartate (C06380) metabolite signal [1]: 1.57E+05 and 1.16E+05 and 1.31E+05
Poly-gamma-D-glutamate (C05723) metabolite signal [1]: 5.78E+07 and 6.19E+07 and 5.54E+07
D-Ribitol 5-phosphate (C01068) metabolite signal [2]: 2.08E+04 and 2.67E+04 and 2.32E+04
D-glucono-1,5-lactone (C00198) metabolite signal [2]: 3.06E+05 and 3.20E+05 and 3.38E+05
L-Noradrenaline (C00547) metabolite signal [2]: 3.16E+04 and 3.80E+04 and 3.20E+04
Oxalosuccinate (C05379) metabolite signal [2]: 9.37E+04 and 1.04E+05 and 9.63E+04
Pyridoxamine (C00534) metabolite signal [2]: 1.68E+04 and 1.54E+04 and 2.58E+04
Thioredoxin disulfide (C00343) metabolite signal [2]: 5.72E+04 and 1.02E+05 and 5.14E+04
1-4-beta-D-Xylan (metabolite signal) [3]: 1.97E+05 and 1.92E+05 and 2.09E+05
2-Hydroxyglutarate/Citramalate (C02630) metabolite signal [3]: 7.86E+04 and 5.69E+04 and 5.61E+04
5-6-Dihydrothymine (C00906) metabolite signal [3]: 2.50E+05 and 2.77E+05 and 2.96E+05
5-10-Methenyltetrahydrofolate (metabolite signal) [3]: 1.06E+05 (2×) and 7.96E+04
5-Hydroxyisourate (C11821) metabolite signal [3]: 1.50E+06 and 2.10E+06 and 4.21E+06
5-L-Glutamyl-taurine (metabolite signal) [3]: 1.11E+05 and 1.18E+05 and 1.16E+05
5-Oxoproline (metabolite signal) [3]: 8.27E+05 and 7.57E+05 and 7.14E+05
(S)(+)-Allantoin (C02350) metabolite signal [3]: 1.72E+04 and 1.57E+04 and 2.62E+04
Allantoate (C00499) metabolite signal [3]: 6.65E+05 and 5.04E+05 and 3.15E+05
Ascorbate (metabolite signal) [3]: 1.17E+05 and 8.53E+04 and 8.00E+04
CMP-N-acetylneuraminate (metabolite signal) [3]: 1.67E+04 and 8.29E+03 and 7.76E+03
Carnosine (metabolite signal) [3]: 1.06E+05 and 9.45E+04 and 2.03E+05
Citrate (C00158) metabolite signal [3]: 4.35E+04 and 3.82E+04 and 3.29E+04
Creatine (metabolite signal) [3]: 2.46E+08 and 2.26E+08 and 2.23E+08
Creatinine (metabolite signal) [3]: 2.77E+06 and 2.62E+06 and 2.87E+06
Cys-Gly (metabolite signal) [3]: 2.32E+06 and 2.14E+06 and 1.32E+06
D-Glucosamine (metabolite signal) [3]: 2.29E+05 and 1.27E+05 and 2.04E+05
D-Glucose (C00031) metabolite signal [3]: 5.29E+06 and 5.04E+06 and 5.14E+06
D-Ribose (C00121) metabolite signal [3]: 1.64E+05 and 1.19E+05 and 1.18E+05
Dehydroascorbate (metabolite signal) [3]: 6.32E+04 and 5.87E+04 and 4.12E+04
Dihydrofolate (metabolite signal) [3]: 3.00E+06 and 2.07E+06 and 9.85E+05
Dimethylglycine (metabolite signal) [3]: 8.86E+05 and 1.02E+06 and 8.96E+05
Diphosphate (C00013) metabolite signal [3]: 2.94E+04 and 3.31E+04 and 1.77E+04
Fumarate (C00122) metabolite signal [3]: 1.04E+05 and 8.86E+04 and 8.87E+04
Glutathione (C00051) metabolite signal [3]: 1.54E+08 and 1.50E+08 and 9.17E+07
Glutathione disulfide (metabolite signal) [3]: 1.48E+05 and 9.64E+04 and 9.50E+04
Hypoxanthine (C00262) metabolite signal [3]: 3.21E+04 and 1.66E+04 and 8.15E+03
IMP (C00130) metabolite signal [3]: 1.58E+05 and 9.80E+04 and 1.96E+05
Inosine (C00294) metabolite signal [3]: 6.71E+04 and 6.29E+04 and 6.63E+04
L-Citrulline (metabolite signal) [3]: 2.74E+06 and 3.23E+06 and 3.99E+06
L-Homoserine (metabolite signal) [3]: 2.34E+05 and 2.10E+05 and 2.35E+05
Lactate (C01432) metabolite signal [3]: 9.22E+06 and 8.76E+06 and 8.98E+06
Malate (C00149) metabolite signal [3]: 1.55E+05 and 1.07E+05 and 9.91E+04
Mannitol (C00392) metabolite signal [3]: 1.01E+05 and 9.53E+04 and 1.38E+05
N-Acetylneuraminate (metabolite signal) [3]: 2.25E+04 and 1.68E+04 and 2.38E+04
N-Glycoloyl-neuraminate (metabolite signal) [3]: 1.23E+05 and 1.51E+05 and 1.32E+05
NAD+ (C00003) metabolite signal [3]: 8.73E+04 and 4.11E+04 and 4.40E+04
Nicotinamide (C00153) metabolite signal [3]: 3.46E+07 and 3.78E+07 and 4.86E+07
Ornithine (metabolite signal) [3]: 1.57E+06 (2×) and 1.55E+06
Oxaloacetate (C00036) metabolite signal [3]: 5.69E+04 and 5.42E+04 and 4.38E+04
Phosphoserine (metabolite signal) [3]: 0.00E+00 (2×) and 3.46E+04
Putrescine (metabolite signal) [3]: 4.96E+04 and 2.87E+04 and 4.23E+04
Pyridoxal (C00250) metabolite signal [3]: 5.84E+04 and 5.75E+04 and 6.92E+04
Pyruvate (C00022) metabolite signal [3]: 9.01E+05 and 7.95E+05 and 8.15E+05
S-Glutathionyl-L-cysteine (metabolite signal) [3]: 1.18E+05 and 8.54E+04 and 7.69E+04
Sedoheptulose 1-phosphate (C06222) metabolite signal [3]: 1.59E+04 and 1.93E+04 and 8.80E+03
Spermidine (metabolite signal) [3]: 8.37E+06 and 7.92E+06 and 6.82E+06
Spermine (metabolite signal) [3]: 1.09E+07 and 1.10E+07 and 8.00E+06
Succinate (C00042) metabolite signal [3]: 7.45E+04 and 8.48E+04 and 5.74E+04
Thymidine (C00214) metabolite signal [3]: 1.11E+04 and 1.24E+04 and 8.29E+03
UDP (C00015) metabolite signal [3]: 2.25E+05 and 1.89E+05 and 1.40E+05
UDP-N-acetyl-D-glucosamine (metabolite signal) [3]: 1.24E+04 and 7.59E+03 and 4.65E+03
UDP-glucose (C00029) metabolite signal [3]: 2.38E+04 and 1.72E+04 and 9.18E+03
Urate (C00366) metabolite signal [3]: 3.27E+04 and 2.94E+04 and 2.46E+04
Xanthine (C00385) metabolite signal [3]: 2.31E+05 and 1.91E+05 and 1.90E+05
alpha-D-Glucosamine 1-phosphate (metabolite signal) [3]: 4.45E+05 and 6.15E+05 and 8.58E+05
alpha-D-Ribose 1-phosphate (C00620) metabolite signal [3]: 6.39E+04 and 6.67E+04 and 4.32E+04
gamma-Glutamyl-gamma-aminobutyrate (metabolite signal) [3]: 7.63E+04 and 8.93E+04 and 1.06E+05
gamma-L-Glutamyl-D-alanine (metabolite signal) [3]: 4.26E+04 and 3.07E+04 and 3.12E+04
gamma-L-Glutamyl-L-cysteine (metabolite signal) [3]: 3.96E+04 and 5.76E+04 and 1.90E+04
